Reference: US20240292840A1, “TRIAZOLE COMPOUNDS FOR THE CONTROL OF INVERTEBRATE PESTS” (priority 2021, published 2024)

Legend:
[1] = tested on: Boll Weevil (Anthonomus grandis); assay: B.5 Boll weevil egg/larval test on insect diet in microtiter plates; format: in vivo; details: 120 h, egg and larval mortality, 5 days, read-out: mortality in comparison with untreated controls
Description: B.5 Boll Weevil (Anthonomus grandis)
For evaluating control of boll weevil (Anthonomus grandis), the test unit consisted of 96-well-microtiter plates containing an insect diet and 5-10 A. grandis eggs.
The compounds were formulated using a solution containing 75% v/v water and 25% v/v DMSO. Different concentrations of formulated compounds were sprayed onto the insect diet at 5 μl, using a custom-built micro atomizer, at two replications.
After application, microtiter plates were incubated at about 25±1° C. and about 75±5% relative humidity for 5 days. Egg and larval mortality was then visually assessed.

[2] = tested on: Yellow Fever Mosquito (Aedes aegypti); assay: whole plant or invertebrate; format: in vivo; details: 48 h, larval mortality, 2 days, read-out: mortality in comparison with untreated controls
Description: B.8 Yellow Fever Mosquito (Aedes aegypti)
For evaluating control of yellow fever mosquito (Aedes aegypti) the test unit consisted of 96-well-microtiter plates containing 200 μl of tap water per well and 5-15 freshly hatched A. aegypti larvae.
The active compounds were formulated using a solution containing 75% (v/v) water and 25% (v/v) DMSO. Different concentrations of formulated compounds or mixtures were sprayed onto the insect diet at 2.5 μl, using a custom-built micro atomizer, at two replications.
After application, microtiter plates were incubated at 28±1° C., 80±5% RH for 2 days. Larval mortality was then visually assessed.

| Compound | mortality at 2500 ppm [1] [%] | mortality at 2500 ppm [2] [%] |
| --- | --- | --- |
| CCON=C(C)n1ncnc1C(C)NC(=O)c1cc(Cl)cc(C(F)(F)F)c1 (centres unmarked) [I.1-12, 3-chloro-N-[1-[2-(N-ethoxy-C-methyl-carbonimidoyl)-1,2,4-triazol-3-yl]ethyl]-5-(trifluoromethyl)benzamide] | ≥ 75 | ≥ 75 |
| C/C(=N/O)n1ncnc1C(C)NC(=O)c1cc(C(F)(F)F)cc(C(F)(F)F)c1 (centres unmarked) [I.1-1, N-[1-[2-[(Z)—N-hydroxy-C-methyl-carbonimidoyl]-1,2,4-triazol-3-yl]ethyl]-3,5-bis(trifluoromethyl)benzamide] | ≥ 75 |  |
| C/C(=N\O)n1ncnc1C(C)NC(=O)c1cc(C(F)(F)F)cc(C(F)(F)F)c1 (centres unmarked) [I.1-76, N-[1-[2-[(E)-N-hydroxy-C-methyl-carbonimidoyl]-1,2,4-triazol-3-yl]ethyl]-3,5-bis(trifluoromethyl)benzamide] | ≥ 75 |  |
| CC(=NOc1ccccc1)n1ncnc1C(C)NC(=O)c1cc(Cl)cc(C(F)(F)F)c1 (centres unmarked) [I.1-13, 3-chloro-N-[1-[2-[C-methyl-N-phenoxy-carbonimidoyl]-1,2,4-triazol-3-yl]ethyl]-5-(trifluoromethyl)benzamide] |  | ≥ 75 |
